Experiment: solvent given as SMILES

CCCCCCCCC=O
Conditions	solvation free energy, 298 K [kcal/mol]
in NC=O	-4.37
in O	-2.08

CC(C)C(C)c1ccc(CC(=O)O)cc1 (stereo not drawn)
Conditions	solvation free energy, 298 K [kcal/mol]
in O	-7.99

CCNc1ccccc1
Conditions	solvation free energy, 298 K [kcal/mol]
in O	-4.76

CCCCN(CCCC)CCCC
Conditions	solvation free energy, 298 K [kcal/mol]
in O	-4.09

CC(C)CC(C)C
Conditions	solvation free energy, 298 K [kcal/mol]
in Brc1ccccc1	-3.81
in C1CCCCC1	-4.32
in C1CCOC1	-4.15
in C1COCCO1	-3.39
in C=CCCCC	-4.22
in C=CCCCCCC	-4.16
in C=CCCCCCCCC	-4.06
in C=CCCCCCCCCCCCCCC	-3.72
in CC1COC(=O)O1	-2.21
in CC#N	-2.78
in CC(=O)N(C)C	-2.97
in CC(=O)O	-3.06
in CC(=O)c1ccccc1	-3.18
in CC(C)=O	-3.45
in CC(C)CC(C)(C)C	-4.15
in CC(C)CCCC(C)CCCC(C)CCCCC(C)CCCC(C)CCCC(C)C	-3.68
in CC(C)CCO	-3.6
in CC(C)O	-3.45
in CC(C)OC(C)C	-4.18
in CCBr	-4.27
in CCC#N	-3.18
in CCC(C)=O	-3.66
in CCCC#N	-3.41
in CCCC(=O)OCC	-3.87
in CCCC(C)=O	-3.74
in CCCCC	-4.33
in CCCCCC	-4.35
in CCCCCC(C)=O	-3.75
in CCCCCCC	-4.22
in CCCCCCCC	-4.14
in CCCCCCCCC	-4.1
in CCCCCCCCCC	-4.06
in CCCCCCCCCCCC	-3.94
in CCCCCCCCCCCCCCCC	-3.85
in CCCCCCCCCCCCO	-3.49
in CCCCCCCCO	-3.57
in CCCCCCOC(C)=O	-3.87
in CCCCO	-3.5
in CCCCOC(C)=O	-3.81
in CCCCOCCCC	-4.13
in CCCO	-3.39
in CCN(CC)CC	-4.26
in CCO	-3.34
in CCOC(C)=O	-3.69
in CCOCC	-4.19
in CCOCCOCCOCC	-3.59
in CCOc1ccccc1	-3.64
in CN1CCCC1=O	-2.82
in CN(C)C=O	-2.82
in CN(C)P(=O)(N(C)C)N(C)C	-3.23
in CNC=O	-2.49
in CO	-2.99
in COC(C)=O	-3.51
in COCCO	-2.84
in COc1ccccc1	-3.57
in CS(C)=O	-2.03
in Cc1ccc(C)cc1	-4.07
in Cc1ccccc1	-4.07
in Cc1ccccn1	-3.66
in ClC(Cl)(Cl)Cl	-4.29
in ClC(Cl)Cl	-4.17
in ClCCCl	-3.63
in ClCCl	-3.96
in Clc1ccccc1	-4.04
in FC(F)(F)C(F)(F)C(F)(F)C(F)(F)C(F)(F)C(F)(F)C(F)(F)C(F)(F)F	-2.77
in FC(F)(F)C(F)(F)C(F)(F)C(F)(F)C(F)(F)C(F)(F)F	-2.85
in Fc1ccccc1	-4.04
in ICI	-2.14
in N#Cc1ccccc1	-3.27
in Nc1ccccc1	-2.55
in O	2.86
in O=C1CCCCC1	-3.56
in O=C1CCCO1	-2.36
in OCc1ccccc1	-2.76
in S=C=S	-4.19
in c1ccccc1	-4.03
in c1ccncc1	-3.4

Nc1cccc2ccccc12
Conditions	solvation free energy, 298 K [kcal/mol]
in CCCCCC	-8.87
in CCCCCCCC	-8.82
in O	-7.4

CN1CCNCC1
Conditions	solvation free energy, 298 K [kcal/mol]
in O	-7.77

COC(C)=O
Conditions	solvation free energy, 298 K [kcal/mol]
in C=CCCCCCCC=C	-3.23
in CC(=O)N(C)C	-3.82
in CC(C)=O	-4.12
in CC(C)CCCC(C)CCCC(C)CCCCC(C)CCCC(C)CCCC(C)C	-2.53
in CC(C)O	-3.36
in CCC1CO1	-4.01
in CCCCC(CC)COC(=O)CCCCC(=O)OCC(CC)CCCC	-3.19
in CCCCCC	-2.93
in CCCCCCC	-2.78
in CCCCCCCC	-2.88
in CCCCCCCCC=CCCCCCCCC(=O)OCC(COC(=O)CCCCCCCC=CCCCCCCCC)OC(=O)CCCCCCCC=CCCCCCCCC	-3.22
in CCCCCCCCCC	-2.8
in CCCCCCCCCCCCCCCC	-2.63
in CCCCCCCCO	-3.15
in CCCCN(C=O)CCCC	-3.48
in CCOC(=O)c1ccccc1C(=O)OCC	-3.48
in CCOCCO	-3.69
in CCOP(=O)(OCC)OCC	-3.75
in CN1CCCC1=O	-3.72
in CN1CCCCC1=O	-3.72
in CN1CCN(C)C1=O	-3.55
in CN(C)C=O	-3.9
in CNC(C)=O	-3.62
in CO	-3.96
in COP(=O)(OC)OC	-3.94
in CS(C)=O	-3.53
in NC=O	-3.27
in O	-3.14
in O=CN1CCOCC1	-3.58
in OCCOCCO	-3.32
in [2H]O[2H]	-3.17
in c1ccc2ncccc2c1	-3.51

Source: the CombiSolv-Exp solvation set (Vermeire and Green 2021)
